Laboratory results from US20070213311A1, “Modulators of 11-beta hydroxyl steroid dehydrogenase type 1, pharmaceutical compositions thereof, and methods of using the same” (priority 2006, published 2007).

Key:
[1] = target: T1, full-length human 11βHSD1 (Homo sapiens, UniProt P28845); experiment: Enzymatic assay of 11βHSD1 (Scintillation Proximity Assay, clarified lysates of HEK-293 transfectants); format: biochemical; details: SPA, 25 nM 3H-cortisone, 400 μM NADPH, 37° C. for one hour
T1 construct: made in house; host or cells: HEK-293 transient transfectants; clarified lysate, not purified
Experimental: Enzymatic Assay of 11βHSD1
All in vitro assays were performed with clarified lysates as the source of 11βHSD1 activity. HEK-293 transient transfectants expressing an epitope-tagged version of full-length human 11βHSD1 were harvested by centrifugation. Roughly 2×10^7 cells were resuspended in 40 mL of lysis buffer (25 mM Tris-HCl, pH 7.5, 0.1 M NaCl, 1 mM MgCl2 and 250 mM sucrose) and lysed in a microfluidizer. Lysates were clarified by centrifugation and the supernatants were aliquoted and frozen.
Inhibition of 11βHSD1 by test compounds was assessed in vitro by a Scintillation Proximity Assay (SPA). Dry test compounds were dissolved at 5 mM in DMSO. These were diluted in DMSO to suitable concentrations for the SPA assay. 0.8 μL of 2-fold serial dilutions of compounds were dotted on 384 well plates in DMSO such that 3 logs of compound concentration were covered. 20 μL of clarified lysate was added to each well. Reactions were initiated by addition of 20 μL of substrate-cofactor mix in assay buffer (25 mM Tris-HCl, pH 7.5, 0.1 M NaCl, 1 mM MgCl2) to final concentrations of 400 μM NADPH, 25 nM ^3H-cortisone and 0.007% Triton X-100. Plates were incubated at 37° C. for one hour. […] Quenched plates were incubated for a minimum of 30 minutes at RT prior to reading on a Topcount scintillation counter. […]

11βHSD1 in the eye = target: T2, 11βHSD1 in the eye (Homo sapiens, UniProt P28845); details: healthy volunteers, after seven days of carbenoxolone treatment; cited from earlier work
T2 construct: 11βHSD1 has been localized to NPE cells; host or cells: eye of healthy volunteers, in vivo
T2 sequence (P28845 whole entry): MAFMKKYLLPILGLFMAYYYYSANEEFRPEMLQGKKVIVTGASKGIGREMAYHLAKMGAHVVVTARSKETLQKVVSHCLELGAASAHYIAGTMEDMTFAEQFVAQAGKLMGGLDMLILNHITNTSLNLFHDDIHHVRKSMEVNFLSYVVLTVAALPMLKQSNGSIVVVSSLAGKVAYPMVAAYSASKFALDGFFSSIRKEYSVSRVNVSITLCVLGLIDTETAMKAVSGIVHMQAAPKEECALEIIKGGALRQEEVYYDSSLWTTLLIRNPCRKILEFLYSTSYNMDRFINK

T1 sequence (P28845 whole entry): as above

IC50 [1] [nM]	Compound	IOP was reduced by (11βHSD1 in the eye) [%]
< 1000	O=C1OC2(CCN(C(=O)C(O)c3ccc(Br)cc3F)C2)c2ccccc21 (centres unmarked) [Example 1, 1′-[(4-Bromo-2-fluorophenyl)(hydroxy)acetyl]-3H-spiro[2-benzofuran-1,3′-pyrrolidin]-3-one]	
	CC1(C)[C@@H](OC(=O)CCC(=O)O)CC[C@]2(C)[C@H]3C(=O)C=C4[C@@H]5C[C@@](C)(C(=O)O)CC[C@]5(C)CC[C@@]4(C)[C@]3(C)CC[C@@H]12 [carbenoxolone]	18
